{"source": "patent US20220160703A1", "about": "“TUMOR-SELECTIVE COMBINATION THERAPY” (The Board of Regents of The University of Texas System, priority 2019, published 2022)", "key": {"[1]": {"tested_on": "A549 tumor", "test": "A549 xenograft in immune-reconstituted C57BL/6 Rag1−/− mice", "type": "in vivo", "settings": "β-lap 0.2 mg i.t. four times", "experimental": "FIGS. 2A-F. β-Lap's antitumor effect is CD8^+ T cell dependent. (FIG. 2A) MC38 cells were subcutaneously transplanted into C57BL/6 WT (n=5-6/group) and Rag1 KO mice (n=5/group), respectively. Tumor bearing mice were treated with β-lap (0.3 mg, i.t.) every other day for four times. Numbers of tumor free mice after treatment were shown. (FIG. 2B) MC38 tumor bearing C57BL/6 mice (n=5/group) were treated with β-lap (0.3 mg, i.t.) every other day for four times. For CD8^+ T cell depletion, 200 μg of anti-CD8 antibodies were intraperitoneally injected four times at three days interval during the treatment. (FIG. 2C) TC-1 tumor bearing C57BL/6 mice (n=4-5/group) were treated with β-lap (0.1 mg, i.t.) for four times with or without anti-CD8 antibodies. (FIG. 2D) Naïve (n=5/group) and β-lap cured MC38 tumor free (n=7/group) C57BL/6 mice were rechallenged subcutaneously with 3×10^6 MC38 cells on the opposite site from the primary tumor 30 days after complete rejection, and tumor growth curve was monitored. […] Tumor growth was measured twice a week. Data are shown as mean±SEM from three independent experiments. **P<0.01, ***P<0.001, ****P<0.0001 determined by two-way ANOVA.\nImmune reconstituted mouse models. […] Tumor volumes were measured at least twice weekly."}, "[2]": {"tested_on": "HMGB1", "test": "HMGB1 release detection (ELISA)", "type": "cell-based, murine", "settings": "NQO1+ tumor cells (MC38, TC-1, NQO1-overexpressing B16), β-lap 3 hr, 24 hr later", "experimental": "FIGS. 5A-F. β-Lap treatment-induced HMGB1 release enhances tumor immunogenicity and triggers antitumor T cell immunity in vivo. (FIG. 5A) MC38, TC-1 and B16 (NQO null and overexpression clones) were treated with β-lap for 3 hr followed by washing and replacing medium. The level of HMGB1 released into the culture supernatant was determined by ELISA 24 hr later. (FIG. 5B) The research schema for in vivo cross-presentation of tumor specific antigen from β-lap-induced dying tumor cells in FIG. 5C and FIG. 5D. (FIGS. 5C-D) Live or β-lap-induced dying MC38-OVA cells were subcutaneously inoculated into the flank of WT or Tlr4^−/− C57BL/6 (n=3-4/group) mice along with or without anti-HMGB1 antibody. […] IFNγ producing cells were determined by ELISPOTs assay (FIG. 5C), and IFNγ secretion level was quantified by CBA mouse IFNγ assay (FIG. 5D). […] Data are shown as mean±SEM from at least two to three independent experiments. *P<0.05, **P<0.01, and ***P<0.001 determined by two-way ANOVA (FIG. 5C and FIG. 5D) or log-rank test (FIG. 5F).\nFIGS. 25A-E. IB-DNQ induces tumor ICD and dendritic cell-mediated T cell cross-priming. […] MC38, MC38 NOQ1^−/−, B16, and B16 NOQ1^+ cells were treated with IB-DNQ for 4 h followed by replacing medium and growth for 24 h, culture supernatant was collected and HMGB1 levels were determined by ELISA. […]"}}}
{"compound": "CC1(C)CCC2=C(O1)c1ccccc1C(=O)C2=O", "note": "[β-lap, β-lapachone]", "values": [{"measurement": "tumor growth without T cell transfer", "setting": "[1]; no OT-1 LN cells", "result": "only partially inhibited"}, {"measurement": "tumors completely rejected", "setting": "[1]; with 2×10^6 OT-1 LN cells", "result": 50, "unit": "%"}, {"measurement": "HMGB1 secretion", "setting": "[2]", "result": "dose-dependent secretion of HMGB1"}]}
